The source of these data is publication PMC6283615, “Anilinoquinoline based inhibitors of trypanosomatid proliferation” (PLoS Neglected Tropical Diseases, 2018).

The subject of series [1] is L. major amastigote. Nature of the series: L. major intracellular amastigote luciferase assay in RAW 264.7 macrophages. In kind it is cell-based, Leishmania major. Particulars: Leishmania major, RAW264.7; intracellular amastigotes in RAW 264.7 macrophages, 96 h. The method, boiled down:
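Murine RAW 264.7 macrophages were infected overnight with luciferase-expressing L. major metacyclic promastigotes (MOI 1:10). Non-internalized parasites were washed off before 96 h compound exposure (0.5–10,000 ng/mL) at 37°C, 5% CO2.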

Series [2] relates to T. cruzi amastigote (Tulahuen strain expressing β-galactosidase). As to the kind of experiment: Intracellular T. cruzi assay in 3T3 cells (beta-galactosidase, 96 h). The following applies: Trypanosoma cruzi, TULAHUEN, NIH3T3; intracellular in 3T3 cells, 96 h; read-out: T. cruzi amastigote EC50. In kind it is cell-based, Trypanosoma cruzi. Put shortly: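 3T3 cells in phenol-red-free DMEM with 2% FBS were infected with Tulahuen β-galactosidase trypomastigotes, 5×10^4 per well, and exposed to compounds from 50 μM in 1:2 serial dilutions, in triplicate. After 96 h at 37°C, 5% CO2, 500 μM CPRG in PBS with 0.5% NP40 was added for 4 h; absorbance was read at 590–595 nm.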

In series [3] the test system is P. fal. D6. Further details: method as in PMID 26087257, PMID 29301082. Particulars: previously reported; cited from earlier work.
On the set-up of series [4]: method as in PMID 29301082. Particulars: lapatinib, Fig 1; cited from earlier work.

Values after ≈ are worked out from the molar mass of the structure shown.

For `CS(=O)(=O)CCNCc1ccc(-c2ccc3ncnc(Nc4ccc(OCc5cccc(F)c5)c(Cl)c4)c3c2)o1` [Lapatinib, lapatinib, reference compound], the results for the EC50 in series [1], in series [2] and in series [3] were 11 µM, 13 µM and 0.47 µM, respectively. The solubility (in general, how much of the substance goes into solution per volume) in series [4] is 12 µM (≈ 6.97 µg/mL).
